Test in all cases: inhibition of tumour cell growth, NCI panel, 48 h
Assay [1] concerns A549.
Assay [2] deals with COLO 205.
Assay [3] relates to HCC 2998.
Assay [4] relates to HCT-15.
Assay [5] concerns HL-60.
The test system of assay [6] is Hs-578T.
Assay [7] relates to LOX IMVI.
Assay [8] concerns MCF7.
The test system of assay [9] is MDA-MB-231.
The test system of assay [10] is MDA-MB-435.
Assay [11] relates to MOLT-4.
The subject of assay [12] is OVCAR-8.
In assay [13] the test system is RXF 393.
Assay [14] concerns SF-268.
Assay [15] deals with SK-MEL-28.
In assay [16] the test system is SK-MEL-5.
For assay [17], the system named is SN12C.
For assay [18], the system named is SW-620.
In assay [19] the test system is UO-31.

This is an account of results in ChEMBL document CHEMBL1201862, “PubChem BioAssay data set” (2004).

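Method: 48-hour compound exposure of cells in 96-well plates, five concentrations, linear interpolation of endpoints. The concentration for 50% growth inhibition is given as GI50.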 Activity calls are given as the source filed them. Rule as the data show it: active = GI50 up to about 1.1 µM and inactive = higher. Bounds are passed on as bounds.

With `O=c1[nH]c(Cc2ccccc2)nc2c1sc1nc3ccccc3n12`, the GI50 in [1] is > 100 µM (inactive); in assay [2], > 100 µM (inactive); in [3], > 100 µM (inactive); in [4] it was more than 100 µM; in assay [5], > 100 µM (inactive); in assay [6] it was > 100 µM (inactive). For the same compound, the GI50 in [7], in assay [8], in assay [9], in [10], in assay [11] and in [12] was > 100 µM (inactive) in each case. The GI50 in assay [13], in [14], in assay [15], in assay [16], in assay [17] and in [18] was > 100 µM (inactive) in each case. Besides, in assay [19], the GI50 is > 100 µM (inactive).
For `CC(=O)Nc1ccc2c3c(cc(O)c2c1)N(C(=O)CCCCCCC(=O)Nc1ccc2c4c(cc(O)c2c1)N(C(=O)OC(C)(C)C)CC4CCl)CC3CCl` (stereo not given), the GI50 in [1] is 0.195 µM (active); in assay [2] it was 0.103 µM (active); in assay [3], 0.0502 µM (active); in [4], 2.64 µM; in assay [5], < 0.0108 µM (active); in [6], 0.264 µM (active). For the same compound, the GI50 in [7] was 0.0391 µM (active); in assay [8], < 0.01 µM (active); in [9], 0.319 µM (active); in assay [10], 0.132 µM (active); in [11], < 0.01 µM (active); in assay [12], 0.0973 µM (active). Moreover, the GI50 in assay [13] was 0.016 µM (active); in assay [14], 0.0291 µM (active); in [15], 0.279 µM (active); in assay [16] it was 0.0217 µM (active); in [17], 0.13 µM (active); in assay [18] it was 0.0968 µM (active). Besides, the GI50 in assay [19] is 1.04 µM (active).
Take `CC(=O)O[C@H]1CC[C@@]2(C)C(=CC[C@H]3[C@@H]4CC[C@H](c5cc(C(F)(F)F)n(C(C)=O)n5)[C@@]4(C)CC[C@@H]32)C1`: the GI50 in [1] was 6.11 µM (inactive); in assay [2], 3.62 µM (inactive); in [3], 13.6 µM (inactive); in assay [4] it was 5.64 µM; in assay [5] it was 3.5 µM (inactive); in assay [6], 26.8 µM (inactive). The GI50 in assay [7] is 7.4 µM (inactive); in assay [8], 5.87 µM (inactive); in assay [9], 4.98 µM (inactive); in assay [10], 9.27 µM (inactive); in assay [11] it was 2.47 µM (inactive); in [12], 5.57 µM (inactive). Moreover, the GI50 was 5.68 µM (inactive) in [13]; 24.8 µM (inactive) in [14]; 13.6 µM (inactive) in assay [15]; 3.45 µM (inactive) in assay [16]; 7.57 µM (inactive) in assay [17]; 12.9 µM (inactive) in assay [18]. Moreover, the GI50 in assay [19] is 1.67 µM (inactive).
With `N/C(=N\Nc1ccc(C(=O)O)cc1)c1cnccn1`, the GI50 is > 100 µM (inactive) in assay [1]; > 100 µM (inactive) in [2]; > 100 µM (inactive) in [3]; more than 100 µM in [4]; < 0.01 µM (active) in assay [5]; > 100 µM (inactive) in assay [6]. Moreover, the GI50 in assay [7], in assay [8], in assay [9], in assay [10], in assay [11] and in assay [12] was > 100 µM (inactive) each time. The GI50 in assay [13], in assay [14], in [15], in [16], in assay [17] and in assay [18] was > 100 µM (inactive) each time. In addition, in [19], the GI50 was > 100 µM (inactive).
`O=C(c1cc2c(c3ccccc13)NC1(CCCCC1)N=C2C(F)(F)F)C(F)(F)F`: the GI50 was 4.35 µM (inactive) in assay [1]; 5.57 µM (inactive) in assay [2]; 2.29 µM (inactive) in assay [3]; 5.07 µM in assay [4]; 2.9 µM (inactive) in [5]; 6.32 µM (inactive) in assay [6]. The GI50 is 3.33 µM (inactive) in [7]; 3.63 µM (inactive) in [8]; 3.14 µM (inactive) in [9]; 3.23 µM (inactive) in assay [10]; 3.29 µM (inactive) in assay [11]; 4.23 µM (inactive) in [12]. For the same compound, the GI50 in assay [13] was 3.66 µM (inactive); in [14], 5.85 µM (inactive); in assay [15], 9.1 µM (inactive); in [16], 5.74 µM (inactive); in assay [17] it was 3.66 µM (inactive); in assay [18], 4.7 µM (inactive). In addition, the GI50 in [19] is 3.62 µM (inactive).
As for `CC(C)c1cc(C(C)C)c(B(c2ccccc2)c2ccccc2)c(C(C)C)c1Br`, the GI50 in [1] was > 100 µM (inactive); in assay [2], > 100 µM (inactive); in assay [3], > 100 µM (inactive); in assay [4], more than 100 µM; in assay [5] it was > 100 µM (inactive); in assay [6] it was > 100 µM (inactive). Besides, the GI50 in [7], in [8], in [9], in [10], in [11] and in [12] was > 100 µM (inactive) in each case. For the same compound, the GI50 in assay [13], in assay [14], in assay [15], in assay [16], in assay [17] and in assay [18] was > 100 µM (inactive) throughout. The GI50 in assay [19] is > 100 µM (inactive).
For the compound `CN(/N=C(\C(=O)O)c1ccccc1)C1=NCCCN1`, the GI50 in assay [1] is > 100 µM (inactive); in assay [2] it was > 100 µM (inactive); in assay [3], > 100 µM (inactive); in assay [4], more than 100 µM; in [5] it was > 100 µM (inactive); in [6] it was > 100 µM (inactive). Also, the GI50 in assay [7], in assay [8], in assay [9], in [10], in [11] and in assay [12] was > 100 µM (inactive) throughout. The GI50 in assay [13], in assay [14], in assay [15], in assay [16], in assay [17] and in [18] was > 100 µM (inactive) throughout. Further, in assay [19], the GI50 is > 100 µM (inactive).
`O=C(O)c1ccc2c(c1)CC1(C2)Cc2ccccc2C1=O` (stereo not given): the GI50 in assay [1] is > 100 µM (inactive); in [2], > 100 µM (inactive); in assay [3], > 100 µM (inactive); in assay [4], more than 100 µM; in [5], > 100 µM (inactive); in assay [6], > 100 µM (inactive). Further, the GI50 in [7], in assay [8], in [9], in assay [10], in assay [11] and in assay [12] was > 100 µM (inactive) in each case. In addition, the GI50 in [13], in assay [14], in [15], in assay [16], in [17] and in assay [18] was > 100 µM (inactive) in each case. Further, in [19], the GI50 is > 100 µM (inactive).
In the case of `O=[N+]([O-])c1cc(Br)cc2cc(Cl)cnc12`, the GI50 in [1] was > 100 µM (inactive); in [2] it was > 100 µM (inactive); in [3] it was > 100 µM (inactive); in [4], more than 100 µM; in assay [5] it was 57.8 µM (inactive); in [6], 36.9 µM (inactive). Also, the GI50 in assay [7] was 82.6 µM (inactive); in assay [8], 35.5 µM (inactive); in assay [9] it was > 100 µM (inactive); in assay [10], > 100 µM (inactive); in [11] it was > 100 µM (inactive); in assay [12], 62.4 µM (inactive). The GI50 is 71.8 µM (inactive) in assay [13]; 89.9 µM (inactive) in assay [14]; > 100 µM (inactive) in assay [15]; 81.8 µM (inactive) in assay [16]; > 100 µM (inactive) in [17]; 14.5 µM (inactive) in assay [18]. Moreover, in assay [19], the GI50 is > 100 µM (inactive).
Turning to `O=C1c2cccnc2-c2nccc3c2c1nc1ccc(Br)cc13`, the GI50 in assay [1] was 0.188 µM (active); in [2], 0.438 µM (active); in assay [3], 0.164 µM (active); in [4], 0.045 µM; in assay [5], 0.0184 µM (active); in assay [6], 0.12 µM (active). Moreover, the GI50 was 0.0221 µM (active) in assay [7]; < 0.0162 µM (active) in assay [8]; < 0.0201 µM (active) in [9]; 0.0887 µM (active) in assay [10]; 0.184 µM (active) in assay [11]; 0.0662 µM (active) in [12]. The GI50 in [13] is 0.0184 µM (active); in assay [14], 0.0242 µM (active); in assay [15] it was 0.0252 µM (active); in assay [16], 0.0247 µM (active); in assay [17] it was 0.0482 µM (active); in [18], 0.0404 µM (active). The GI50 in assay [19] was 0.0557 µM (active).
